PubChem BioAssay AID248 (DTP/NCI, 2004)
Where “and” joins values, the source holds several entries; their conditions need not be identical. Equal entries are not always repeated. Inconclusive results and toxic doses are left out. Rule as the data show it: active = T/C of 150% or more; inactive = T/C below 125%.

Tested on: L1210 leukemia ip in BDF1 mice, survival T/C
Assay: NCI In Vivo Anticancer Drug Screen. Data for tumor model L1210 Leukemia (intraperitoneal) in B6D2F1 (BDF1) mice
Details: endpoint: mean survival time, higher = longer survival
In short: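 Survival endpoint. Drug-treated group vs vehicle group, expressed as T divided by C. Tumor passaged by transplantation.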

[1] = dose: 100.0 mg/kg/injection, schedule: Q01DX009 (ip), vehicle: saline with Tween-80
[2] = dose: 25.0 mg/kg/injection, schedule: Q01DX009 (ip), vehicle: saline
[3] = dose: 50.0 mg/kg/injection, schedule: Q01DX009 (ip), vehicle: saline
[4] = dose: 100.0 mg/kg/injection, schedule: Q04DX003 (ip), vehicle: Klucel (hydroxypropylcellulose) (HPC)
[5] = dose: 200.0 mg/kg/injection, schedule: Q04DX003 (ip), vehicle: Klucel (hydroxypropylcellulose) (HPC)
[6] = dose: 400.0 mg/kg/injection, schedule: Q04DX003 (ip), vehicle: Klucel (hydroxypropylcellulose) (HPC)
[7] = dose: 25.0 mg/kg/injection, schedule: Q01DX009 (ip), vehicle: saline with Tween-80
[8] = dose: 50.0 mg/kg/injection, schedule: Q01DX009 (ip), vehicle: saline with Tween-80
[9] = dose: 200.0 mg/kg/injection, schedule: Q01DX009 (ip), vehicle: saline with Tween-80
[10] = dose: 100.0 mg/kg/injection, schedule: Q04DX003 (ip), vehicle: saline with Tween-80
[11] = dose: 100.0 mg/kg/injection, schedule: Q01DX009 (ip), vehicle: saline
[12] = dose: 100.0 mg/kg/injection, schedule: Q01DX001 (ip), vehicle: carboxymethylcellulose (CMC)
[13] = dose: 200.0 mg/kg/injection, schedule: Q01DX001 (ip), vehicle: carboxymethylcellulose (CMC)
[14] = dose: 400.0 mg/kg/injection, schedule: Q01DX001 (ip), vehicle: carboxymethylcellulose (CMC)
[15] = dose: 100.0 mg/kg/injection, schedule: Q01DX009 (ip), vehicle: Klucel (hydroxypropylcellulose) (HPC)
[16] = dose: 200.0 mg/kg/injection, schedule: Q01DX009 (ip), vehicle: Klucel (hydroxypropylcellulose) (HPC)
[17] = dose: 400.0 mg/kg/injection, schedule: Q01DX009 (ip), vehicle: Klucel (hydroxypropylcellulose) (HPC)
[18] = dose: 200.0 mg/kg/injection, schedule: Q04DX003 (ip), vehicle: saline with Tween-80
[19] = dose: 400.0 mg/kg/injection, schedule: Q04DX003 (ip), vehicle: saline with Tween-80

Measured: T/C

CCCCCn1c(C)cc(/C=C\c2ccc3cc(C)ccc3[n+]2C)c1C
inactive: dose: 0.5 mg/kg/injection, schedule: Q01DX001 (ip), vehicle: carboxymethylcellulose (CMC) 94 % of control | dose: 0.5 mg/kg/injection, schedule: Q01DX009 (ip), vehicle: saline sonified 116 % of control | dose: 0.5 mg/kg/injection, schedule: Q04DX003 (ip), vehicle: saline sonified 98 % of control | dose: 0.66 mg/kg/injection, schedule: Q01DX009 (ip), vehicle: saline 101 % of control | dose: 1.0 mg/kg/injection, schedule: Q01DX001 (ip), vehicle: carboxymethylcellulose (CMC) 97 % of control | dose: 1.0 mg/kg/injection, schedule: Q01DX009 (ip), vehicle: saline 100 % of control | dose: 1.0 mg/kg/injection, schedule: Q04DX003 (ip), vehicle: saline sonified 97 % of control | dose: 1.5 mg/kg/injection, schedule: Q01DX009 (ip), vehicle: saline 92 % of control | dose: 2.0 mg/kg/injection, schedule: Q01DX001 (ip), vehicle: carboxymethylcellulose (CMC) 97 % of control | dose: 2.0 mg/kg/injection, schedule: Q04DX003 (ip), vehicle: saline sonified 106 % of control

Oc1ccccc1C1CC2CCC1C2 (centres undefined)
inactive: dose: 50.0 mg/kg/injection, schedule: Q04DX002 (ip), vehicle: saline with Tween-80 106 % of control | [1] 107 % of control | dose: 100.0 mg/kg/injection, schedule: Q04DX002 (ip), vehicle: saline with Tween-80 103 % of control | dose: 200.0 mg/kg/injection, schedule: Q04DX002 (ip), vehicle: saline with Tween-80 100 % of control

CN1CN(c2ccccc2)C2(CCN(CCCC3Cc4ccccc4O3)CC2)C1=O (centres undefined)
inactive: dose: 12.0 mg/kg/injection, schedule: Q01DX001 (ip), vehicle: Klucel (hydroxypropylcellulose) (HPC) 95 % of control | dose: 25.0 mg/kg/injection, schedule: Q01DX001 (ip), vehicle: Klucel (hydroxypropylcellulose) (HPC) 98 % of control | dose: 50.0 mg/kg/injection, schedule: Q01DX001 (ip), vehicle: Klucel (hydroxypropylcellulose) (HPC) 96 % of control

NCC(S)c1ccc(Cl)cc1 (centres undefined)
inactive: dose: 12.5 mg/kg/injection, schedule: Q01DX009 (ip), vehicle: saline 114 % of control | [2] 101 % of control | [3] 97 % of control

Cc1c(NC(=O)Nc2cc(C(F)(F)F)ccc2Cl)c(=O)n(-c2ccccc2)n1C
inactive: dose: 100.0 mg/kg/injection, schedule: Q04DX002 (ip), vehicle: Klucel (hydroxypropylcellulose) (HPC) 96 % of control | dose: 200.0 mg/kg/injection, schedule: Q04DX002 (ip), vehicle: Klucel (hydroxypropylcellulose) (HPC) 96 % of control | dose: 400.0 mg/kg/injection, schedule: Q04DX002 (ip), vehicle: Klucel (hydroxypropylcellulose) (HPC) 105 % of control

CCc1cc(C(=O)NC(CCC(=O)O)C(=O)O)ccc1NCc1cnc2nc(N)[nH]c(=O)c2n1 (centres undefined)
inactive: dose: 50.0 mg/kg/injection, schedule: Q01DX001 (ip), vehicle: saline with Tween-80 106 % of control | dose: 100.0 mg/kg/injection, schedule: Q01DX001 (ip), vehicle: saline with Tween-80 100 % of control | dose: 200.0 mg/kg/injection, schedule: Q01DX001 (ip), vehicle: saline with Tween-80 100 % of control

Nc1nc(-c2ccccc2N=NN2CCOCC2)nc2ccccc12
inactive: [4] 101 % of control | [5] 103 % of control | [6] 101 % of control

CC(=O)Oc1cccc(OC(=O)Nc2ccccc2F)c1
inactive: [7] 103 % of control | [8] 108 % of control | [1] 103 % of control and 113 % of control | [9] 95 % of control and 103 % of control

CCCSCCSCCC
inactive: dose: 25.0 mg/kg/injection, schedule: Q04DX003 (ip), vehicle: saline with Tween-80 104 % of control | dose: 50.0 mg/kg/injection, schedule: Q04DX003 (ip), vehicle: saline with Tween-80 102 % of control | [10] 104 % of control and 90 % of control

NCCSC(c1ccccc1)(c1ccccc1)c1ccccc1
inactive: [2] 94 % of control | [3] 103 % of control | [11] 107 % of control

O=c1[nH]c2ccccc2c2ccc(Cl)cc12
inactive: [12] 103 % of control | [13] 100 % of control | [14] 102 % of control

Cc1cc([N+](=O)[O-])c(Nc2cccc(O)c2)c([N+](=O)[O-])c1
inactive: [15] 108 % of control | [4] 101 % of control | [16] 102 % of control | [5] 95 % of control | [17] 116 % of control | [6] 101 % of control

C=CC(=C)CCC=C(C)C
inactive: dose: 25.0 mg/kg/injection, schedule: Q04DX003 (ip), vehicle: saline 101 % of control | dose: 50.0 mg/kg/injection, schedule: Q04DX003 (ip), vehicle: saline 101 % of control | dose: 100.0 mg/kg/injection, schedule: Q04DX003 (ip), vehicle: saline 97 % of control | dose: 200.0 mg/kg/injection, schedule: Q04DX003 (ip), vehicle: saline 87 % of control | dose: 400.0 mg/kg/injection, schedule: Q04DX003 (ip), vehicle: saline 86 % of control

CCCC1(CCC)NC(=O)N(CC(N)=O)C1=O
inactive: [10] 100 % of control | [18] 102 % of control | [19] 98 % of control

Nc1ncnc2c1nnn2C1CC2COP(=O)(O)OC2C1O (centres undefined)
inactive: dose: 44.0 mg/kg/injection, schedule: Q01DX007 (ip), vehicle: saline with Tween-80 103 % of control | dose: 67.0 mg/kg/injection, schedule: Q01DX007 (ip), vehicle: saline with Tween-80 114 % of control | dose: 100.0 mg/kg/injection, schedule: Q01DX007 (ip), vehicle: saline with Tween-80 101 % of control

[Si]c1cccc2ccccc12
inactive: dose: 25.6 mg/kg/injection, schedule: Q04DX002 (ip), vehicle: saline with Tween-80 97 % of control | dose: 64.0 mg/kg/injection, schedule: Q04DX002 (ip), vehicle: saline with Tween-80 97 % of control | dose: 160.0 mg/kg/injection, schedule: Q04DX002 (ip), vehicle: saline with Tween-80 97 % of control | dose: 400.0 mg/kg/injection, schedule: Q04DX002 (ip), vehicle: saline with Tween-80 101 % of control

CCC1(C)OC(C)C(C)O1 (centres undefined)
inactive: [3] 100 % of control | [11] 107 % of control | dose: 200.0 mg/kg/injection, schedule: Q01DX009 (ip), vehicle: saline 104 % of control

COC(=O)/C=C/C=C(c1ccccc1)c1ccccc1
inactive: [12] 93 % of control | [13] 102 % of control | [14] 102 % of control

O=c1c(N2CCOCC2)c(N2CCOCC2)c1=O
inactive: [1] 100 % of control | [10] 104 % of control | [9] 100 % of control | [18] 103 % of control | dose: 400.0 mg/kg/injection, schedule: Q01DX009 (ip), vehicle: saline with Tween-80 100 % of control | [19] 95 % of control

Cn1nc2ccccc2n1
inactive: [7] 97 % of control | [8] 106 % of control | [1] 100 % of control | [10] 116 % of control

CCC/C=C(C)/C=N\NC(=O)c1ccc[n+](C)c1
inactive: [8] 93 % of control | [1] 97 % of control

O=[N+]([O-])c1ccc(/C=N/O)o1
inactive: dose: 10.0 mg/kg/injection, schedule: Q04DX002 (ip), vehicle: Klucel (hydroxypropylcellulose) (HPC) 102 % of control | dose: 20.0 mg/kg/injection, schedule: Q04DX002 (ip), vehicle: Klucel (hydroxypropylcellulose) (HPC) 117 % of control | dose: 40.0 mg/kg/injection, schedule: Q04DX002 (ip), vehicle: Klucel (hydroxypropylcellulose) (HPC) 104 % of control | dose: 50.0 mg/kg/injection, schedule: Q01DX001 (ip), vehicle: saline 111 % of control

CC(C)(C)OC(=O)NC(CSCc1ccccc1)C(=O)O (centres undefined)
inactive: dose: 50.0 mg/kg/injection, schedule: Q01DX009 (ip), vehicle: Klucel (hydroxypropylcellulose) (HPC) 98 % of control | [15] 92 % of control | [1] 91 % of control | [16] 98 % of control | [9] 89 % of control

CCOC(=O)C1=CCC(n2cc(F)c(=O)[nH]c2=O)O1 (centres undefined)
inactive: [10] 98 % of control | [18] 102 % of control | [19] 98 % of control

CCOC(=O)c1ccc(NC(=O)Oc2ccc(OC)cc2)cc1
inactive: [15] 96 % of control | [16] 100 % of control | [17] 98 % of control

CC(=O)Nc1ccc(/C=N/NC(=O)COCC(=O)N/N=C/c2ccc(NC(C)=O)cc2)cc1
inactive: [15] 91 % of control | [16] 94 % of control | [17] 96 % of control
